Earlier results, collected in PubChem BioAssay AID1259410 (Chemical Carcinogenesis Research Information System (CCRIS), 2018).

System: rodent tumor promotion studies, tumor incidence
Assay: CCRIS tumor promotion studies
[1] = Carcinogen: 7,12-DIMETHYLBENZ(A)ANTHRACENE, Doses [Carcinogen]: TOP, Route [Carcinogen]: DERMAL, Route [Promoter]: DERMAL, Species: MOUSE, Strain/Sex: FEMALE

In the case of `[Na+]`, the outcome (Carcinogen: N-BUTYL-N-(4-HYDROXYBUTYL)NITROSAMINE, 3817-11-6, Doses [Carcinogen]: 0.05% IN DRINKING WATER FOR 4 WK, Doses [Promoter]: 0, 2.34% IN DIET BEGINNING POST LAST CARCINOGEN DOSE AND CONTINUING FOR 32 WK (STUDY DURATION: 37 WK), Route [Carcinogen]: ORAL, Route [Promoter]: ORAL, Species: RAT, Strain/Sex: WISTAR/MALE) is listed as “urinary bladder: papilloma”, the outcome (Carcinogen: N-METHYL-N'-NITRO-N-NITROSOGUANIDINE, 70-25-7, Doses [Carcinogen]: 0.25 ML/10 G BW OF A 5 G/L DISTILLED WATER SOLUTION (7.5-8.8 MG/RAT) ONCE, Doses [Promoter]: 0, 10% IN DIET BEGINNING POST CARCINOGEN DOSE AND CONTINUING FOR STUDY DURATION (STUDY DURATION: 1 YR), Route [Carcinogen]: INTRAGASTRIC, Route [Promoter]: ORAL, Species: RAT, Strain/Sex: ACI/MALE) is listed as “forestomach: squamous carcinoma” and the outcome (Carcinogen: N-METHYL-N'-NITRO-N-NITROSOGUANIDINE, 70-25-7, Doses [Carcinogen]: 25 UG/ML IN DRINKING WATER FOR 25 WK, Doses [Promoter]: 0, 10% IN DIET FOR 26 WK BEGINNING 1 WK POST CARCINOGEN TREATMENT (STUDY DURATION: 52 WK), Route [Carcinogen]: ORAL, Route [Promoter]: ORAL, Species: RAT, Strain/Sex: WISTAR/MALE) is listed as “glandular stomach: adenocarcinoma”. The outcome (Carcinogen: N-METHYL-N'-NITRO-N-NITROSOGUANIDINE, 70-25-7, Doses [Carcinogen]: 100 PPM IN DRINKING WATER FOR 8 WK, Doses [Promoter]: 0, 5, 10% IN DIET FOR 82 WK BEGINNING POST CARCINOGEN TREATMENT (STUDY DURATION: 90 WK), Doses [Promoter]: 0, 5, 10% IN DIET FOR 82 WK BEGINNING POST CARCINOGEN TREATMENT (STUDY DURATION: 90 WK), Route [Carcinogen]: ORAL, Route [Promoter]: ORAL, Species: RAT, Strain/Sex: WISTAR/MALE) was “glandular stomach: adenoma or adenocarcinoma”, the outcome (Carcinogen: N-METHYL-N'-NITRO-N-NITROSOGUANIDINE, 70-25-7, Doses [Carcinogen]: 100 PPM IN DRINKING WATER FOR 10 WK, Doses [Promoter]: 0, 2.5, 5% IN DIET FOR 62 WK BEGINNING POST CARCINOGEN TREATMENT (STUDY DURATION: 72 WK), Doses [Promoter]: 0, 2.5, 5% IN DIET FOR 62 WK BEGINNING POST CARCINOGEN TREATMENT (STUDY DURATION: 72 WK), Route [Carcinogen]: ORAL, Route [Promoter]: ORAL, Species: RAT, Strain/Sex: WISTAR/MALE) was “stomach: adenocarcinoma” and the outcome (Carcinogen: N-[4-(5-NITRO-2-FURYL)-2-THIAZOLYL]FORMAMIDE, 24554-26-5, Doses [Carcinogen]: 0.2% IN DIET FOR 6 WK, Doses [Promoter]: 0, 1.34% IN PROLAB DIET FOR 72 WK BEGINNING POST CARCINOGEN TREATMENT (STUDY DURATION: 78 WK), Route [Carcinogen]: ORAL, Route [Promoter]: ORAL, Species: RAT, Strain/Sex: F344/MALE) was “urinary bladder: carcinoma, carcinoma and papilloma”.
In the case of `Cn1cnc([N+](=O)[O-])c1S`, the outcome (Carcinogen: UV IRRADIATION, Doses [Carcinogen]: 0.53 J/CM2 INCREASED BY 20% EVERY 2 WK TO 1.60 J/CM2 AND MAINTAINED AT 1.60 J/CM2 UNTIL DEATH, ADMINISTERED 5 D/WK FOR 1, Doses [Promoter]: 0, 15 UG/G BEGINNING 2 WK POST FIRST CARCINOGEN DOSE ADMINISTERED 2 HR PRIOR TO EACH CARCINOGEN DOSE (STUDY DURATION: 30, Route [Carcinogen]: DERMAL, Route [Promoter]: INTRAPERITONEAL, Species: MOUSE, Strain/Sex: SKH/HRL/FEMALE) is listed as “skin: tumor”.
In the case of `CC[C@H](C)[C@H](NC(=O)[C@H](Cc1cnc[nH]1)NC(=O)[C@H](CCSC)NC(=O)[C@H](CS)NC(=O)[C@@H](NC(=O)CNC(=O)CNC(=O)[C@H](CC(N)=O)NC(=O)[C@H](CC(C)C)NC(=O)[C@H](CS)NC(=O)[C@H](Cc1ccc(O)cc1)NC(=O)CNC(=O)[C@H](CC(=O)O)NC(=O)[C@H](Cc1ccc(O)cc1)NC(=O)[C@H](CO)NC(=O)[C@H](CO)NC(=O)[C@@H]1CCCN1C(=O)[C@H](CS)NC(=O)CNC(=O)[C@@H]1CCCN1C(=O)[C@H](Cc1ccc(O)cc1)NC(=O)[C@H](CO)NC(=O)[C@@H](N)CC(N)=O)C(C)C)C(=O)N[C@@H](CCC(=O)O)C(=O)N[C@@H](CO)C(=O)N[C@@H](CC(C)C)C(=O)N[C@@H](CC(=O)O)C(=O)N[C@@H](CO)C(=O)N[C@@H](Cc1ccc(O)cc1)C(=O)N[C@H](C(=O)N[C@@H](CS)C(=O)N[C@@H](CC(N)=O)C(=O)N[C@@H](CS)C(=O)N[C@H](C(=O)N[C@H](C(=O)NCC(=O)N[C@@H](Cc1ccc(O)cc1)C(=O)N[C@@H](CO)C(=O)NCC(=O)N[C@@H](CC(=O)O)C(=O)N[C@@H](CCCNC(=N)N)C(=O)N[C@@H](CS)C(=O)N[C@@H](CCC(N)=O)C(=O)N[C@H](C(=O)N[C@@H](CCCNC(=N)N)C(=O)N[C@@H](CC(=O)O)C(=O)N[C@@H](CC(C)C)C(=O)N[C@@H](CCCNC(=N)N)C(=O)N[C@@H](Cc1c[nH]c2ccccc12)C(=O)N[C@@H](Cc1c[nH]c2ccccc12)C(=O)N[C@@H](CCC(=O)O)C(=O)N[C@@H](CC(C)C)C(=O)N[C@@H](CCCNC(=N)N)C(=O)O)[C@@H](C)O)[C@@H](C)CC)C(C)C)[C@@H](C)O`, the outcome (Carcinogen: 7,12-DIMETHYLBENZ[A]ANTHRACENE, 57-97-6, Doses [Carcinogen]: 0.5% IN ACETONE/HEAVY MINERAL OIL APPLIED TO BOTH CHEEK POUCHES 3/WK FOR 6 WK, Doses [Promoter]: 0, 10 UG/KG BW 3/WK FOR 6 WK BEGINNING 1 WK POST A SIALOADENECTOMY OR SHAM OPERATION AND 2 WK POST CARCINOGEN TREATMENT, Route [Carcinogen]: MUCOUS MEMBRANE, Route [Promoter]: MUCOUS MEMBRANE, Species: HAMSTER, Strain/Sex: SYRIAN/MALE) is listed as “cheek pouch: tumor; forestomach: tumor”.
For `Cc1cccc(O)c1`, the outcome [1] is listed as “integumentary system (skin)”.
For `Oc1ccc(I)cc1`, the outcome [1] is listed as “integumentary system (skin)”.
In the case of `N[C@@H](CC(=O)O)C(=O)O`, the outcome (Carcinogen: N-BUTYL-N-(4-HYDROXYBUTYL)NITROSAMINE, 3817-11-6, Doses [Carcinogen]: 0.05% IN DRINKING WATER FOR 4 WK, Doses [Promoter]: 0, 5% IN DRINKING WATER FOR 36 WK BEGINNING POST CARCINOGEN TREATMENT (STUDY DURATION: 40 WK), Route [Carcinogen]: ORAL, Route [Promoter]: ORAL, Species: RAT, Strain/Sex: F344/FEMALE) is listed as “urinary bladder: carcinoma” and the outcome (Carcinogen: N-BUTYL-N-(4-HYDROXYBUTYL)NITROSAMINE, 3817-11-6, Doses [Carcinogen]: 0.05% IN DRINKING WATER FOR 4 WK, Doses [Promoter]: 0, 5% IN DRINKING WATER FOR 36 WK BEGINNING POST CARCINOGEN TREATMENT (STUDY DURATION: 40 WK), Route [Carcinogen]: ORAL, Route [Promoter]: ORAL, Species: RAT, Strain/Sex: F344/MALE) is listed as “urinary bladder: carcinoma”.
In the case of `CCCCCCCCCCC(C)C1(CCC(=O)OC2C(C)C3(O)C(C=C(CO)CC4(O)C(=O)C(C)=CC43)C3C(C)(C)C23OC(C)=O)OCC(C)(C)N1[O]` (centres undefined), the outcome (Carcinogen: 7,12-DIMETHYLBENZ[A]ANTHRACENE, 57-97-6, Doses [Carcinogen]: 100 NMOL ONCE, Doses [Promoter]: 0, 20 NMOL 2/WK FOR 24 WK BEGINNING 1 WK POST CARCINOGEN DOSE (STUDY DURATION: 25 WK), Route [Carcinogen]: DERMAL, Route [Promoter]: DERMAL, Species: MOUSE, Strain/Sex: NMRI/FEMALE) is listed as “skin: tumor”.
For `C=C(C)[C@]12C[C@@H](C)[C@@]34O[C@](CCCCCCCCC)(O[C@@H]1[C@@H]3[C@@H]1O[C@]1(CO)[C@@H](O)[C@]1(O)C(=O)C(C)=C[C@H]14)O2`, the outcome (Carcinogen: 7,12-DIMETHYLBENZ(A)ANTHRACENE, Doses [Carcinogen]: 100 NMOL ONCE, Doses [Promoter]: 10, 20 NMOL 2/WK FOR 24 WK, Route [Carcinogen]: DERMAL, Route [Promoter]: DERMAL, Species: MOUSE, Strain/Sex: NMRI/FEMALE) is listed as “integumentary system (skin): tumor (nos)”.
For `C[C@]12CC[C@@H]3c4ccc(OS(=O)(=O)O)cc4CC[C@H]3[C@@H]1CCC2=O`, the outcome (Carcinogen: 7,12-Dimethylbenz[a]anthrene, 57-97-6, Doses [Carcinogen]: 5 mg in corn oil, intragastric, once, Doses [Promoter]: 100 ng/ml in drinking water, study duration 20 wk, Route [Carcinogen]: Oral, Route [Promoter]: Oral, Species: Rat, Strain/Sex: Sprague-Dawley/Female (16/group)) is given as “mammary gland: tumor”.
For `CC(=O)[C@H]1[C@H](C#N)C[C@H]2[C@@H]3CC=C4C[C@@H](O)CC[C@]4(C)[C@H]3CC[C@@]21C`, the outcome (Carcinogen: DIISOPROPANOLNITROSAMINE [53609-64-6], Doses [Carcinogen]: SINGLE DOSE OF 2.5 G/KG BW, Doses [Promoter]: 1000 PPM IN DIET BEGINNING 1 WK AFTER DIPN TREATMENT FOR 19 WKS (STUDY DURATION: 20 WKS), Route [Carcinogen]: SUBCUTANEOUS INJECTION, Route [Promoter]: DIET, Species: RAT, Strain/Sex: SPRAGUE-DAWLEY/MALE) is given as “thyroid: cystic adenoma, follicular adenoma, and follicular carcinoma”.
For `CCCCCCCC/C=C\CCCCCCCC(=O)OC[C@@H](O)[C@H]1OC[C@H](O)[C@H]1O`, the outcome (Carcinogen: 7,12-DIMETHYLBENZ(A)ANTHRACENE, Doses [Carcinogen]: TOP, Route [Carcinogen]: DERMAL, Route [Promoter]: DERMAL, Species: MOUSE, Strain/Sex: MALE) is given as “integumentary system (skin)”.
In the case of `CC(C)(C)NC(=O)[C@H]1CC[C@H]2[C@@H]3CC=C4C=C(C(=O)O)CC[C@]4(C)[C@H]3CC[C@]12C`, the outcome (Carcinogen: 3,2'-DIMETHYL-4-AMINOBIPHENYL, 13394-86-0, Doses [Carcinogen]: 50 MG/KG BW ONCE/2 WK FOR FIRST 20 WK, Doses [Promoter]: 0, 10, 50 MG/KG BW BY GAVAGE 3X/WK FOR 40 WK BEGINNING 20 WK POST CARCINOGEN TREATMENT (STUDY DURATION: 60 WK), Doses [Promoter]: 0, 10, 50 MG/KG BW BY GAVAGE 3X/WK FOR 40 WK BEGINNING 20 WK POST CARCINOGEN TREATMENT (STUDY DURATION: 60 WK), Route [Carcinogen]: SUBCUTANEOUS, Route [Promoter]: ORAL, Species: RAT, Strain/Sex: F344/MALE) is listed as “prostate (ventral): adenocarcinoma”.
For `O=S(=O)(O)NC1CCCCC1`, the outcome (Carcinogen: METHYLNITROSOUREA, Doses [Carcinogen]: BLADDER IMP, Doses [Promoter]: IN DIET, Route [Carcinogen]: BLADDER IMPLANT, Route [Promoter]: ORAL, Species: RAT, Strain/Sex: WISTAR/FEMALE) is listed as “urinary bladder”.
